Results: the NIST ThermoML archive (doi:10.1016/j.jct.2013.08.010)

Experiment: mn = molality of the nth substance listed, in mol/kg
Settings: 101 kPa, Liquid; for speed of sound: Sing-around technique in a fixed-path interferometer; for mass density: Vibrating tube method

NCC(=O)O [2-aminoacetic acid] + O
Settings | mass density, 288.15 K [kg/m3] | mass density, 298.15 K [kg/m3] | mass density, 308.15 K [kg/m3] | mass density, 318.15 K [kg/m3] | speed of sound, 288.15 K [m/s] | speed of sound, 298.15 K [m/s] | speed of sound, 308.15 K [m/s] | speed of sound, 318.15 K [m/s]
m1 = 0.01207 | 999.51 | 997.439 | 994.412 | 990.513 | 1467.2 | 1497.7 | 1520 | 1537.2
m1 = 0.0523 | 1000.84 | 998.74 | – | 991.747 | 1470.1 | 1500.1 | 1522.9 | 1538.9
m1 = 0.1037 | 1002.52 | 1000.39 | 997.281 | 993.309 | 1472.3 | 1502.3 | 1524.7 | 1541.1
m1 = 0.2037 | 1005.77 | 1003.57 | 1000.37 | 996.317 | 1477.8 | 1507.2 | 1529.7 | 1545.8
m1 = 0.3068 | 1009.07 | 1006.8 | 1003.51 | – | 1483.4 | 1512.4 | 1534.6 | 1551.4
m1 = 0.4124 | 1012.4 | 1010.06 | 1006.68 | 1002.46 | 1488.7 | 1517.8 | 1539.7 | 1555.4
m1 = 0.5028 | 1015.22 | 1012.82 | 1009.36 | 1005.06 | 1494.5 | 1523 | 1543.8 | 1560.2
m1 = 0.6058 | 1018.38 | 1015.9 | 1012.35 | 1007.97 | 1499.2 | 1527.3 | 1548.7 | 1564.1
m1 = 0.6829 | 1020.71 | 1018.19 | 1014.55 | 1010.1 | 1503.4 | 1531.3 | 1552.5 | 1567.7
m1 = 0.82 | 1024.83 | 1022.23 | 1018.45 | 1013.89 | 1510.2 | 1537.7 | 1558.6 | 1573.5

CC(C)[C@H](N)C(=O)O [L-valine] + O
Settings | mass density, 288.15 K [kg/m3] | mass density, 298.15 K [kg/m3] | mass density, 308.15 K [kg/m3] | mass density, 318.15 K [kg/m3] | speed of sound, 288.15 K [m/s] | speed of sound, 298.15 K [m/s] | speed of sound, 308.15 K [m/s] | speed of sound, 318.15 K [m/s]
m1 = 0.00555 | 999.264 | 997.195 | 994.174 | 990.28 | 1467.4 | 1497.5 | 1520.4 | 1537.1
m1 = 0.02398 | 999.773 | 997.685 | 994.647 | 990.74 | 1467.3 | 1497.4 | 1520.4 | 1537.4
m1 = 0.03504 | 1000.08 | 997.977 | 994.929 | 991.014 | 1469.7 | 1499.6 | 1522 | 1538.7
m1 = 0.05824 | 1000.71 | 998.588 | 995.518 | 991.588 | 1469.6 | 1499.7 | 1522.6 | 1539
m1 = 0.07873 | 1001.27 | 999.124 | 996.034 | 992.09 | 1472.8 | 1502.4 | 1525 | 1541.2
m1 = 0.09938 | 1001.83 | 999.658 | 996.551 | 992.593 | 1474.8 | 1504.4 | 1526.9 | 1542.7
m1 = 0.2068 | 1004.69 | 1002.41 | 999.213 | 995.181 | 1477 | 1506.2 | 1528.2 | 1544.4
m1 = 0.2992 | 1007.1 | 1004.73 | 1001.45 | 997.351 | 1488.4 | 1516.6 | 1537.8 | 1552.5
m1 = 0.4017 | 1009.7 | 1007.24 | 1003.87 | 999.709 | 1497.2 | 1524.8 | 1545.2 | 1560.4
